Measurements published in PubChem BioAssay (NCI).
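Following 48 hours of exposure in 96-well plates, responses at five concentrations were used to interpolate endpoints linearly. At the GI50, growth is halved. At the TGI there is no net growth.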

Tests used:
Assay in all cases: NCI anticancer screen, dose series, 48 h
786-0 renal = tested on: 786-0 renal
A498 renal = tested on: A498 renal
A549 NSCLC = tested on: A549 NSCLC
ACHN renal = tested on: ACHN renal
BT-549 breast = tested on: BT-549 breast
CAKI-1 renal = tested on: CAKI-1 renal
CCRF-CEM leukemia = tested on: CCRF-CEM leukemia
COLO 205 colon = tested on: COLO 205 colon
DU-145 prostate = tested on: DU-145 prostate
EKVX NSCLC = tested on: EKVX NSCLC
HCC-2998 colon = tested on: HCC-2998 colon
HCT-116 colon = tested on: HCT-116 colon
HCT-15 colon = tested on: HCT-15 colon
HL-60(TB) leukemia = tested on: HL-60(TB) leukemia
HOP-62 NSCLC = tested on: HOP-62 NSCLC
HOP-92 NSCLC = tested on: HOP-92 NSCLC
HS 578T breast = tested on: HS 578T breast
HT29 colon = tested on: HT29 colon
IGROV1 ovarian = tested on: IGROV1 ovarian
K-562 leukemia = tested on: K-562 leukemia
KM12 colon = tested on: KM12 colon
LOX IMVI melanoma = tested on: LOX IMVI melanoma
M14 melanoma = tested on: M14 melanoma
MALME-3M melanoma = tested on: MALME-3M melanoma
MCF7 breast = tested on: MCF7 breast
MDA-MB-231 breast = tested on: MDA-MB-231 breast
MDA-MB-435 = tested on: MDA-MB-435
MOLT-4 leukemia = tested on: MOLT-4 leukemia
NCI-H226 lung = tested on: NCI-H226 lung

Structure (SMILES): O=C(Nc1ccc(I)cc1F)c1cc(Br)ccc1O
- GI50 (786-0 renal): 2.19 µM
- TGI (786-0 renal): 5.5 µM
- GI50 (A498 renal): 0.175 µM
- TGI (A498 renal): 0.63 µM
- GI50 (A549 NSCLC): 2.81 µM
- TGI (A549 NSCLC): > 100 µM
- GI50 (ACHN renal): 0.592 µM
- TGI (ACHN renal): 11.4 µM
- GI50 (BT-549 breast): 0.37 µM
- TGI (BT-549 breast): 1.76 µM
- GI50 (CAKI-1 renal): 0.308 µM
- TGI (CAKI-1 renal): 2.34 µM
- GI50 (CCRF-CEM leukemia): 1.01 µM
- TGI (CCRF-CEM leukemia): 19.5 µM
- GI50 (COLO 205 colon): 3.83 µM
- TGI (COLO 205 colon): 13.4 µM
- GI50 (DU-145 prostate): 0.865 µM
- TGI (DU-145 prostate): > 67.8 µM
- GI50 (EKVX NSCLC): 1.04 µM
- TGI (EKVX NSCLC): 7.22 µM
- GI50 (HCC-2998 colon): 2.77 µM
- TGI (HCC-2998 colon): 10.7 µM
- GI50 (HCT-116 colon): 0.411 µM
- TGI (HCT-116 colon): 1.96 µM
- GI50 (HCT-15 colon): 0.743 µM
- TGI (HCT-15 colon): 6.72 µM
- GI50 (HL-60(TB) leukemia): 0.472 µM
- TGI (HL-60(TB) leukemia): 3.5 µM
- GI50 (HOP-62 NSCLC): 2.03 µM
- TGI (HOP-62 NSCLC): 7.04 µM
- GI50 (HOP-92 NSCLC): 0.162 µM
- TGI (HOP-92 NSCLC): 0.516 µM
- GI50 (HS 578T breast): 0.346 µM
- TGI (HS 578T breast): 2.62 µM
- GI50 (HT29 colon): 3.29 µM
- TGI (HT29 colon): > 35.1 µM
- GI50 (IGROV1 ovarian): 0.412 µM
- TGI (IGROV1 ovarian): > 100 µM
- GI50 (K-562 leukemia): 0.431 µM
- TGI (K-562 leukemia): > 100 µM
- GI50 (KM12 colon): 2.2 µM
- TGI (KM12 colon): 5.49 µM
- GI50 (LOX IMVI melanoma): 0.474 µM
- TGI (LOX IMVI melanoma): 2.75 µM
- GI50 (M14 melanoma): 0.603 µM
- TGI (M14 melanoma): 4.49 µM
- GI50 (MALME-3M melanoma): 0.379 µM
- TGI (MALME-3M melanoma): 2 µM
- GI50 (MCF7 breast): 0.78 µM
- TGI (MCF7 breast): 7.76 µM
- GI50 (MDA-MB-231 breast): 0.457 µM
- TGI (MDA-MB-231 breast): 4.73 µM
- GI50 (MDA-MB-435): 0.652 µM
- TGI (MDA-MB-435): 4.64 µM
- GI50 (MOLT-4 leukemia): 1.39 µM
- TGI (MOLT-4 leukemia): 5.6 µM
- GI50 (NCI-H226 lung): 1.28 µM
- TGI (NCI-H226 lung): 4.41 µM
